In the oligonucleotide strings, read from the 5' end, every base follows the letter of its sugar. An asterisk marks phosphorothioate; unmarked linkages are phosphodiester. Other units and linkages are bracketed, terminal groups are in braces. A string of capitals states the bases alone. [BANA] = BANA-modified thymidine; l = locked nucleic acid (LNA); [HNA] = hexitol nucleic acid; [5mC] = 5-methylcytosine; d = 2'-deoxy (DNA)
How the values were obtained:
Assay type in all cases: binding
[1] = test system: single-stranded oligo RNA 5′-r([…])-3′ (SEQ ID No. 36); assay: Double-strand forming ability (Tm) of mMALAT1 antisense oligonucleotides with RNA; conditions: for RNA Complement Tm: as in Example 9; for RNA Complement ΔTm: difference from the Tm of the sequence (26)
Method: (§1) The double-strand forming ability of the oligonucleotides was examined by subjecting the different types of oligonucleotides and the target strands to an annealing treatment to form double strands, and then measuring their Tm values. More specifically, a mixed liquid of each oligonucleotide (final concentration: 4 μM) and a phosphate buffer (10 mM, pH 7.2, 130 μL) containing sodium chloride (final concentration: 100 mM) was bathed in boiling water and then slowly cooled to room temperature. After that, the mixed liquid was cooled to 5° C. under nitrogen stream before starting the measurement. The temperature was raised to 90° C. at a rate of 0.5° C./min while absorbance at 260 nm was plotted at intervals of 0.5° C. The Tm value was calculated using a median method or differentiation (SEQ ID No. 17), and a mean value of three independent measurements was adopted.
Furthermore, the double-strand forming ability for RNA, of each oligonucleotide was assessed in a manner similar to that of Example 9. Two sequences shown in Table 42 below were used as controls (also represented by SEQ ID Nos. 34 and 35, respectively).
A single-stranded oligo RNA 5′-r([…])-3′ (SEQ ID No. 36) was used as a target strand.

[2] = test system: single-stranded oligo DNA 5′-d(AGCAAAAAACGC)-3′ (SEQ ID No. 19); assay: Double-strand forming ability (Tm) with single-stranded oligo DNA; conditions: for ssDNA Tm: oligonucleotide 4 μM, 10 mM phosphate buffer pH 7.2, 100 mM NaCl, mean of three measurements; for ssDNA ΔTm/mod.: Tm change per artificially modified nucleic acid base vs 5′-GCGTTTTTTGCT-3′
Method: as §1

[3] = test system: single-stranded oligo RNA 5′-r(AGCAAAAAACGC)-3′ (SEQ ID No. 18); assay: Double-strand forming ability (Tm) with single-stranded oligo RNA; conditions: for ssRNA Tm: oligonucleotide 4 μM, 10 mM phosphate buffer pH 7.2, 100 mM NaCl, mean of three measurements; for RNA Complement ΔTm: difference from the Tm of the sequence (18); for RNA Complement Tm: sequences (18) to (21), as in Example 9; for ssRNA ΔTm/mod.: Tm change per artificially modified nucleic acid base vs 5′-GCGTTTTTTGCT-3′
[4] = test system: single-stranded oligo RNA 5′-r(AGCAAAYAACGC)-3′; assay: Base selectivity (Tm, match/mismatch) with single-stranded oligo RNA
Method: as §1
(§2) For the above sequences (1) to (5), the double-strand forming ability (binding affinity) was examined in a similar manner using a single-stranded oligo RNA 5′-r([…])-3′ and a single-stranded oligo DNA 5′-d([…])-3′ as target strands.
(§3) For the single-stranded oligo RNA, Y was one of rA (SEQ ID No. 18), rU (SEQ ID No. 20), rG (SEQ ID No. 21), and rC (SEQ ID No. 22). For the single-stranded oligo DNA, Y was one of dA (SEQ ID No. 19), dT (SEQ ID No. 23), dG (SEQ ID No. 24), and dC (SEQ ID No. 25).
(§4) In the table, ΔTm was calculated by subtracting the Tm value of the match (dA or rA) from the Tm value of the mismatch.

[5] = test system: single-stranded oligo DNA 5′-d(AGCAAAYAACGC)-3′; assay: Base selectivity (Tm, match/mismatch) with single-stranded oligo DNA
Method: as §1, §2, §3, §4

[6] = sequences (1) to (5), label = unit at position 6, match

For “5′-d(5^T^^LA^g^t^t^c^a^c^t^g^a^a^T^LG^5)-3′ (antisense CTAGTTCACTGAATGC; BANA and LNA modifications, phosphorothioate linkages; modified_base (1)..(1) c = SANA-mC3; modified_base (2)..(2) t = SANA-t3; modified_base (2)..(13) phosphorothioated; modified_base (3)..(3) a = LNA-a; modified_base (14)..(14) t = SANA-t3; modified_base (15)..(15) g = LNA-g; modified_base (16)..(16) c = SANA-mC3) [(24), antisense oligonucleotide against mMALAT1; 5: BANA-^mC3, T: BANA-T3]”, the “RNA Complement Tm” value [1] was 61.7 °C and the “RNA Complement ΔTm” value [1] was −0.4 °C.
With “5′-d(GCGTTTTTTGCT)-3′ (DNA, backbone and methylation of C not given here) [native DNA (dT), reference compound]” the “ssDNA Tm” value [2] was 51 °C and the “ssRNA Tm” value [3] was 48 °C.
“5′-d(5^T^^LA^g^t^t^c^a^c^t^g^a^a^T^^LG^5)-3′ (antisense CTAGTTCACTGAATGC; sugars from the 5' end [BANA][BANA]ldddddddddd[BANA]l[BANA], [5mC] at 1, 16, all phosphorothioate, methylation of C not given here) [(22), antisense oligonucleotide against mMALAT1; 5: BANA-^mC3, T: BANA-T3, {circumflex}: PS]” was tested, and the “RNA Complement Tm” value [1] was 60.3 °C and the “RNA Complement ΔTm” value [1] was −1.8 °C.
In the case of “5′-d(GCGTTL33TGCT)-3′ (DNA GCGTTTTTTGCT; LNA-T and BANA-T3 modified nucleotides; modified_base (6)..(6) t = LNA-t; modified_base (7)..(8) t = BANA-t3) [(19), L=LNA-T, 3=Compound 25 (BANA-T3)]”, the “RNA Complement ΔTm” value [3] is reported as “+1 °C” and the “RNA Complement Tm” value [3] is reported as 64 °C.
For “5′-d(GCGTT33LTGCT)-3′ (DNA GCGTTTTTTGCT; LNA-T and BANA-T3 modified nucleotides; modified_base (6)..(7) t = BANA-t3; modified_base (8)..(8) t =LNA-t) [(21), L=LNA-T, 3=Compound 25 (BANA-T3)]”, the “RNA Complement ΔTm” value [3] was −2 °C and the “RNA Complement Tm” value [3] was 61 °C.
“5′-d(5T^LA^g^t^t^c^a^c^t^g^a^a^T^LG^5)-3′ (antisense CTAGTTCACTGAATGC; BANA and LNA modifications, phosphorothioate linkages; modified_base (1)..(1) c = BANA-mC3; modified_base (2)..(2) t = BANA-t3; modified_base (3)..(3) a = LNA-a; modified_base (3)..(13) phosphorothioated; modified_base (14)..(14) t = BANA-t3; modified_base (15)..(15) g = LNA-g; modified_base (16)..(16) c = BANA-mC3) [(25), antisense oligonucleotide against mMALAT1; 5: BANA-^mC3, T: BANA-T3]” was tested, and the “RNA Complement Tm” value [1] was 63.4 °C and the “RNA Complement ΔTm” value [1] was “+1.3 °C”.
With “5′-d(GCG222222GCT)-3′ (DNA GCGTTTTTTGCT; BANA-T2 modified nucleotides; modified_base (4)..(9) t = BANA-t2) [5′-GCG222222GCT-3′, 2=Compound 19 (BANA-T2)]” the “ssDNA ΔTm/mod.” value [2] was −0.7 °C, the “ssDNA Tm” value [2] was 47 °C and the “ssRNA ΔTm/mod.” value [3] was “+4.5 °C”. For the same molecule, the “ssRNA Tm” value [3] was 75 °C.
In the case of “5′-d(GCGTT3L3TGCT)-3′ (DNA GCGTTTTTTGCT; LNA-T and BANA-T3 modified nucleotides; modified_base (6)..(6) t = BANA-t3; modified_base (7)..(7) t = LNA-t; modified_base (8)..(8) t = BANA-t3) [(20), L=LNA-T, 3=Compound 25 (BANA-T3)]”, the “RNA Complement ΔTm” value [3] is reported as −3 °C and the “RNA Complement Tm” value [3] is reported as 60 °C.
For COc1ccc(C(OC[C@H]2OC3CCOC([C@@H]3n3cc(C)c(=O)[nH]c3=O)[C@H]2OP(OCCC#N)N(C(C)C)C(C)C)(c2ccccc2)c2ccc(OC)cc2)cc1 (stereo partly drawn) [compound 19], the “base pairing with G” value ([4]; introduced into the oligonucleotides, compared with native DNA (dT) (SEQ ID No. 1)) was “suppressed base pairing with G”, the “ssRNA: Tm, Y = rA” value [4, 6] was 48 °C and the “ssRNA: Tm, Y = rC” value ([4]; sequences (1) to (5), mismatch rC) was 34 °C. The “ssRNA: Tm, Y = rG” value ([4]; sequences (1) to (5), mismatch rG) was 39 °C, the “ssRNA: Tm, Y = rU” value ([4]; sequences (1) to (5), mismatch rU) was 40 °C and the “ssRNA: ΔTm, Y = rC” value ([4]; ΔTm = Tm(mismatch) − Tm(match), mismatch rC) was −14 °C. For the same molecule, the “ssRNA: ΔTm, Y = rG” value ([4]; ΔTm = Tm(mismatch) − Tm(match), mismatch rG) was −9 °C, the “ssRNA: ΔTm, Y = rU” value ([4]; ΔTm = Tm(mismatch) − Tm(match), mismatch rU) was −8 °C and the “ssDNA: Tm, Y = dA” value [5, 6] was 42 °C. For the same molecule, the “ssDNA: Tm, Y = dT” value ([5]; sequences (1) to (5), label = unit at position 6, mismatch dT) was 38 °C, the “ssDNA: Tm, Y = dC” value ([5]; sequences (1) to (5), mismatch dC) was 32 °C and the “ssDNA: Tm, Y = dG” value ([5]; sequences (1) to (5), mismatch dG) was 31 °C. For the same molecule, the “ssDNA: ΔTm, Y = dC” value ([5]; ΔTm = Tm(mismatch) − Tm(match), mismatch dC) was −10 °C, the “ssDNA: ΔTm, Y = dG” value ([5]; ΔTm = Tm(mismatch) − Tm(match), mismatch dG) was −11 °C and the “ssDNA: ΔTm, Y = dT” value ([5]; ΔTm = Tm(mismatch) − Tm(match), mismatch dT) was −4 °C.
In the case of “5′-d(c^t^a^g^t^t^c^a^c^t^g^a^a^t^g^c)-3′ (antisense dC*dT*dA*dG*dT*dT*dC*dA*dC*dT*dG*dA*dA*dT*dG*dC) [(27), control, PS DNA, reference compound]”, the “RNA Complement Tm” value [1] is reported as 44.2 °C and the “RNA Complement ΔTm” value [1] is reported as −17.9 °C.
In the case of “5′-d(5T^LA^g^t^t^c^a^c^t^g^a^a^T^^LG^5)-3′ (antisense CTAGTTCACTGAATGC; BANA and LNA modifications, phosphorothioate linkages; modified_base (1)..(1) c = SANA-mC3; modified_base (2)..(2) t = SANA-t3; modified_base (3)..(3) a = LNA-a; modified_base (4)..(16) phosphorothioated; modified_base (14)..(14) t = SANA-t3; modified_base (15)..(15) g = LNA-g; modified_base (16)..(16) c = SANA-mC3) [(23), antisense oligonucleotide against mMALAT1; 5: BANA-^mC3, T: BANA-T3]”, the “RNA Complement Tm” value [1] is reported as 61.0 °C and the “RNA Complement ΔTm” value [1] is reported as −1.1 °C.
For “5′-d(GCG111111GCT)-3′ (DNA GCGTTTTTTGCT; BANA-T1 modified nucleotides; modified_base (4)..(9) ANA-t1) [5′-GCG111111GCT-3′]”, the “ssDNA ΔTm/mod.” value [2] was −1.8 °C, the “ssDNA Tm” value [2] was 40 °C and the “ssRNA ΔTm/mod.” value [3] was “+3.3 °C”. The “ssRNA Tm” value [3] was 68 °C.
For “5′-d(GCGTTHTTTGCT)-3′ (DNA GCGTTTTTTGCT; sugars from the 5' end d5 [HNA]1 d6, backbone not given here) [H=HNA-T, reference compound]”, the “ssDNA ΔTm/mod.” value [2] was −4 °C, the “ssDNA Tm” value [2] was 47 °C and the “ssRNA ΔTm/mod.” value [3] was “+1 °C”. The “ssRNA Tm” value [3] was 49 °C.
“5′-d(GCGTT1TTTGCT)-3′ (DNA GCGTTTTTTGCT; BANA-T1 modified nucleotide; modified_base (6)..(6) t = BANA-t1) [5′-GCGTT1TTTGCT-3′]” was tested, and the “ssDNA ΔTm/mod.” value [2] was −10 °C, the “ssDNA Tm” value [2] was 41 °C and the “ssRNA ΔTm/mod.” value [3] was −4 °C. The “ssRNA Tm” value [3] was 44 °C.
For “5′-d(^LC^^LT^^LA^g^t^t^c^a^c^t^g^a^a^^LT^^LG^^LC)-3′ (antisense CTAGTTCACTGAATGC; sugars from the 5' end l3 d10 l3, all phosphorothioate, methylation of C not given here) [(26), control, LNA gapmer with PS, reference compound]”, the “RNA Complement Tm” value [1] was 62.1 °C.
For “5′-d(GCGTTLLLTGCT)-3′ (DNA GCGTTTTTTGCT; sugars from the 5' end d5 l3 d4, backbone not given here) [(18), L=LNA-T (LNA), reference compound]”, the “RNA Complement Tm” value [3] was 63 °C.

Source: patent US12473299B2, “Cross-linked nucleoside and nucleotide using same” (Osaka University, priority 2020, dated 2025)
